Assay results from ChEMBL document CHEMBL4725417, “Membrane Permeable, Bioreversibly Modified Prodrugs of Nucleoside Diphosphate-γ-Phosphonates” (J Med Chem, 2020).
Activity calls are given as the source filed them. The calls are words filed in the database; no cut-off is given here.

How the values were obtained:
[1] = Half life assessed as pig liver esterase-mediated compound hydrolysis at 6 mM by HPLC analysis; type: ADME, Sus scrofa
[2] = test system: Human immunodeficiency virus 2; assay: Antiviral activity against HIV2 ROD infected in human CEM/0 CD4+ T cells assessed as reduction in virus-induced cytopathogenicity by measuring syncytia cell formation incubated for 4 to 5 days by microscopy; settings: Human immunodeficiency virus 2, ISOLATE ROD, CCRF-CEM
[3] = Half life in pH 7.3 PBS buffer at 1.4 mM by HPLC analysis; type: physicochemical
[4] = Half life in human CEM/0 cell extracts at 6 mM by HPLC analysis; type: ADME, tissue-based, CCRF-CEM
[5] = test system: Human immunodeficiency virus 2; assay: Antiviral activity against HIV2 ROD infected in human TK-deficient CEM/TK- T-cells assessed as reduction in virus-induced cytopathogenicity by measuring syncytia cell formation incubated for 4 to 5 days by microscopy; settings: Human immunodeficiency virus 2, ISOLATE ROD
[6] = Cytotoxicity in human CEM cells assessed as reduction in cell proliferation; type: cell-based; settings: CEM cells (CCRF-CEM)
[7] = test system: Human immunodeficiency virus 1; assay: Antiviral activity against HIV1 3B infected in human CEM/0 CD4+ T cells assessed as reduction in virus-induced cytopathogenicity by measuring syncytia cell formation incubated for 4 to 5 days by microscopy; type: functional, organism-based; settings: Human immunodeficiency virus 1, 3B, CCRF-CEM
[8] = biological target: DNA polymerase beta (Homo sapiens) (UniProt P06746); assay: Substrate activity at human DNA polymerase beta incubated at 37 degC for 60 mins and at 80 degC for 7 mins by primer extension assay; settings: time 67.0 min
[9] = biological target: Human immunodeficiency virus type 1 reverse transcriptase (Human immunodeficiency virus 1) (UniProt Q72547); assay: Substrate activity at HIV1 reverse transcriptase incubated at 37 degC for 30 mins and at 80 degC for 7 mins by primer extension assay; settings: time 37.0 min
Homo sapiens = organism: Homo sapiens; assay: Substrate activity at human DNA polymerase gamma incubated at 37 degC for 60 mins and at 80 degC for 7 mins by primer extension assay; settings: time 67.0 min
[10] = biological target: T1, DNA polymerase alpha catalytic subunit (Homo sapiens) (UniProt P09884); assay: Substrate activity at human DNA polymerase alpha incubated at 37 degC for 60 mins and at 80 degC for 7 mins by primer extension assay; settings: time 67.0 min
T1 sequence (whole entry): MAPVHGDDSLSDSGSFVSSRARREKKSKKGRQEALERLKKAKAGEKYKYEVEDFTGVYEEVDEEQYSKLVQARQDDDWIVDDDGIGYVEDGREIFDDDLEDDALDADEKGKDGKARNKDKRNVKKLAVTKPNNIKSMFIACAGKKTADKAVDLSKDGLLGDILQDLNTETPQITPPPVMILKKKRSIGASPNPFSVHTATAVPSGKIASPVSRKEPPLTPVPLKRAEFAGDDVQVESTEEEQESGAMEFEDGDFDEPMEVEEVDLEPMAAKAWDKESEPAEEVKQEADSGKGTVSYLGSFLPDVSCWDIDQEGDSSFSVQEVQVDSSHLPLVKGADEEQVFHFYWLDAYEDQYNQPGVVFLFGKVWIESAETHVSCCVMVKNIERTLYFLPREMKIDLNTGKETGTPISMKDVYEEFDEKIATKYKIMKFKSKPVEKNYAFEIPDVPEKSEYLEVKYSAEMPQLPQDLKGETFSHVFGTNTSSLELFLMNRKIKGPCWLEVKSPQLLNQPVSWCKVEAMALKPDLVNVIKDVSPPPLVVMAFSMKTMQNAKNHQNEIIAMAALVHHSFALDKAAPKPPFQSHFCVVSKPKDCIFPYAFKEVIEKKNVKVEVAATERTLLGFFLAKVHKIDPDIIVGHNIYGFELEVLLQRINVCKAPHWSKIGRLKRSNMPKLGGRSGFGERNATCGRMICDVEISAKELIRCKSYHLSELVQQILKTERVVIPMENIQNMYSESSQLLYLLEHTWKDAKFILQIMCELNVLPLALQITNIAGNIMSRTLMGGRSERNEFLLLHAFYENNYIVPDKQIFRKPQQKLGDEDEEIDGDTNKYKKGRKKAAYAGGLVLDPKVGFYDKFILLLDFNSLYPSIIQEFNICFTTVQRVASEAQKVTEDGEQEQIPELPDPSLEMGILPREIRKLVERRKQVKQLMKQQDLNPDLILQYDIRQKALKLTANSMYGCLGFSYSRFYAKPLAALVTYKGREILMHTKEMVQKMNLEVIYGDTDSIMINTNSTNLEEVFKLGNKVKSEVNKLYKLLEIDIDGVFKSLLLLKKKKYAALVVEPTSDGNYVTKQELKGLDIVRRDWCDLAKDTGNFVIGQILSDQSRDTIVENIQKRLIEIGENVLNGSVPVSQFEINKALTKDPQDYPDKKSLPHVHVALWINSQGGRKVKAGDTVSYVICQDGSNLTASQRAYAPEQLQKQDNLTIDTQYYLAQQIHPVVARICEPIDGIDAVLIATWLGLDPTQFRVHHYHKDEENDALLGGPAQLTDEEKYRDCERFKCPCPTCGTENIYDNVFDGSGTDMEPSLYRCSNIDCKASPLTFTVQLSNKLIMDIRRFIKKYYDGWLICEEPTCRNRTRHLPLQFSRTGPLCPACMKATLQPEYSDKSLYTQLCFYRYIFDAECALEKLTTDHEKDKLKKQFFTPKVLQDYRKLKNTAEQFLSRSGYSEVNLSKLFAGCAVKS

SMILES	half-life at 6000 µM [1]	EC50 [2]	half-life at 1400 µM [3]	half-life at 6000 µM [4]	EC50 [5]	CC50 [6]	EC50 [7]	Activity [8]	Activity [9]	Activity (Homo sapiens)	Activity [10]
CCCCCCCCCCCCP(=O)(OCc1ccc(OC(=O)OCCCCCCCCCCC)cc1)OP(=O)(O)OP(=O)(O)OC[C@@H]1C=C[C@H](n2cc(C)c(=O)[nH]c2=O)O1.N.N (stereo not given in full)	10.6 h	110 nM	47.9 days	> 10 h	320 nM	39000 nM	40 nM	–	–	–	–
CCCCCCCCCCCCP(=O)(OCCC#N)OP(=O)(O)OP(=O)(O)OC[C@@H]1C=C[C@H](n2cc(C)c(=O)[nH]c2=O)O1.N.N (stereo not given in full)	> 80 h	87 nM	6.17 days	> 15 h	20900 nM	> 100000 nM	210 nM	–	–	–	–
CCCCCCCCCCCCP(=O)(OCc1ccc(OC(=O)OCCCC)cc1)OP(=O)(O)OP(=O)(O)OC[C@@H]1C=C[C@H](n2cc(C)c(=O)[nH]c2=O)O1.N.N (stereo not given in full)	0.009 h	200 nM	14.4 days	4.3 h	9900 nM	38000 nM	97 nM	–	–	–	–
CCCCCCCCCCCCCCCCCCP(=O)(OCCC#N)OP(=O)(O)OP(=O)(O)OC[C@@H]1C=C[C@H](n2cc(C)c(=O)[nH]c2=O)O1.N.N (stereo not given in full)	> 150 h	46 nM	20 days	> 10 h	140 nM	38000 nM	95 nM	–	–	–	–
CCCCCCCCCCCCCCP(=O)(OCc1ccc(OC(=O)OCCCC)cc1)OP(=O)(O)OP(=O)(O)OC[C@@H]1C=C[C@H](n2cc(C)c(=O)[nH]c2=O)O1.N.N (stereo not given in full)	0.032 h	220 nM	21.6 days	64 h	1760 nM	32000 nM	120 nM	–	–	–	–
CCCCCCCCCCCCCCCCCCP(=O)(OCc1ccc(OC(=O)OCCCC)cc1)OP(=O)(O)OP(=O)(O)OC[C@@H]1C=C[C@H](n2cc(C)c(=O)[nH]c2=O)O1.N.N (stereo not given in full)	1.04 h	26 nM	51.7 days	> 10 h	32 nM	16000 nM	1.8 nM	–	–	–	–
CCCCCCCCCCCCP(=O)(OCc1ccc(OC(=O)CCCCCCCCCCC)cc1)OP(=O)(O)OP(=O)(O)OC[C@@H]1C=C[C@H](n2cc(C)c(=O)[nH]c2=O)O1.N.N (stereo not given in full)	0.917 h	91 nM	38.3 days	> 8 h	66 nM	37000 nM	7.4 nM	–	–	–	–
CCCCCCCCCCCCP(=O)(O)OP(=O)(O)OP(=O)(O)OC[C@@H]1C=C[C@H](n2cc(C)c(=O)[nH]c2=O)O1.N.N.N	> 150 h	170 nM	> 125 days	> 30 h	41100 nM	> 100000 nM	150 nM	inactive	Active	inactive	inactive
CCCCCCCCCCCCP(=O)(OCc1ccc(OC(C)=O)cc1)OP(=O)(O)OP(=O)(O)OC[C@@H]1C=C[C@H](n2cc(C)c(=O)[nH]c2=O)O1.N.N (stereo not given in full)	0.46 h	21 nM	4.29 days	0.043 h	26300 nM	> 100000 nM	23 nM	–	–	–	–
CCCCCCCCCCCCP(=O)(OCc1ccc(OC(=O)CCCC)cc1)OP(=O)(O)OP(=O)(O)OC[C@@H]1C=C[C@H](n2cc(C)c(=O)[nH]c2=O)O1.N.N (stereo not given in full)	0.013 h	25 nM	8.96 days	0.81 h	3430 nM	86000 nM	65 nM	–	–	–	–
CCCCCCCCCCCCCCCCCCP(=O)(O)OP(=O)(O)OP(=O)(O)OC[C@@H]1C=C[C@H](n2cc(C)c(=O)[nH]c2=O)O1.N.N.N	> 80 h	110 nM	22.3 days	> 30 h	1580 nM	21000 nM	46 nM	inactive	inactive	inactive	inactive
CCCCCCCCCCCCCCCCCCP(=O)(OCc1ccc(OC(=O)CCCC)cc1)OP(=O)(O)OP(=O)(O)OC[C@@H]1C=C[C@H](n2cc(C)c(=O)[nH]c2=O)O1.N.N (stereo not given in full)	2 h	21 nM	26.9 days	6.7 h	42 nM	19000 nM	7.4 nM	–	–	–	–
CCCCCCCCCCCCP(=O)(OCc1ccc(OC(=O)OC)cc1)OP(=O)(O)OP(=O)(O)OC[C@@H]1C=C[C@H](n2cc(C)c(=O)[nH]c2=O)O1.N.N (stereo not given in full)	0.7 h	350 nM	5.12 days	0.65 h	36800 nM	> 100000 nM	95 nM	–	–	–	–
CCCCCCCCCCCCCCP(=O)(OCc1ccc(OC(=O)CCCC)cc1)OP(=O)(O)OP(=O)(O)OC[C@@H]1C=C[C@H](n2cc(C)c(=O)[nH]c2=O)O1.N.N (stereo not given in full)	0.081 h	160 nM	21.2 days	4.5 h	530 nM	56000 nM	31 nM	–	–	–	–
Cc1cn([C@H]2C=C[C@@H](CO)O2)c(=O)[nH]c1=O [STAVUDINE]	–	–	–	–	–	> 50000 nM	–	Active	–	inactive	inactive
